Reference: patent US9409908B2 (priority 2012, dated 2016)
Structures can show the parent of a compound that is named as a salt. Where two headings read alike, the source gives them in different places.

Tests used:
[1] = biological target: purified human Factor XIa (Homo sapiens (Human), UniProt P03951); experiment: biochemical; type: biochemical; conditions: read-out: Factor XIa Ki
[2] = biological target: purified human plasma kallikrein (Homo sapiens (Human), UniProt P03952); experiment: biochemical; type: biochemical; conditions: read-out: Plasma Kallikrein Ki
Sequence of purified human plasma kallikrein (P03952 whole entry, looked up): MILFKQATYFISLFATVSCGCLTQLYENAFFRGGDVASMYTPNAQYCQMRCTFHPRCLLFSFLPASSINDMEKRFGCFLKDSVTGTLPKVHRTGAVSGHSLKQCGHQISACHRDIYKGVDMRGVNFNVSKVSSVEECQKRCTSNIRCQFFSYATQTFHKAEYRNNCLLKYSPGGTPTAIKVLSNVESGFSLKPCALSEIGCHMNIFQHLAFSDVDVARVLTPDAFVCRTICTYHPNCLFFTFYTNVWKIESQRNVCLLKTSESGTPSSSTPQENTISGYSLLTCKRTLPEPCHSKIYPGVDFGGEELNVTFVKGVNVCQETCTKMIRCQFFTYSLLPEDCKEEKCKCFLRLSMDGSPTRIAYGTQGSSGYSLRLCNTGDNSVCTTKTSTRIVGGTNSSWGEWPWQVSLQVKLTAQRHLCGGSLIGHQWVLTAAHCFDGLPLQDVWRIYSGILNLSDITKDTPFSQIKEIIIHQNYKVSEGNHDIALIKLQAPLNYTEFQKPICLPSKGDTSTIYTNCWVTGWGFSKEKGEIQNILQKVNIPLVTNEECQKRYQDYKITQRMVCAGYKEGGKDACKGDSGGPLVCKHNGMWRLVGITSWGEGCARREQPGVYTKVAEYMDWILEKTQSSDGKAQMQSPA
Sequence of purified human plasma kallikrein (P03952 whole entry partner, looked up): as the sequence (P03952 whole entry, looked up) above

Sequence of purified human Factor XIa (P03951 whole entry, looked up): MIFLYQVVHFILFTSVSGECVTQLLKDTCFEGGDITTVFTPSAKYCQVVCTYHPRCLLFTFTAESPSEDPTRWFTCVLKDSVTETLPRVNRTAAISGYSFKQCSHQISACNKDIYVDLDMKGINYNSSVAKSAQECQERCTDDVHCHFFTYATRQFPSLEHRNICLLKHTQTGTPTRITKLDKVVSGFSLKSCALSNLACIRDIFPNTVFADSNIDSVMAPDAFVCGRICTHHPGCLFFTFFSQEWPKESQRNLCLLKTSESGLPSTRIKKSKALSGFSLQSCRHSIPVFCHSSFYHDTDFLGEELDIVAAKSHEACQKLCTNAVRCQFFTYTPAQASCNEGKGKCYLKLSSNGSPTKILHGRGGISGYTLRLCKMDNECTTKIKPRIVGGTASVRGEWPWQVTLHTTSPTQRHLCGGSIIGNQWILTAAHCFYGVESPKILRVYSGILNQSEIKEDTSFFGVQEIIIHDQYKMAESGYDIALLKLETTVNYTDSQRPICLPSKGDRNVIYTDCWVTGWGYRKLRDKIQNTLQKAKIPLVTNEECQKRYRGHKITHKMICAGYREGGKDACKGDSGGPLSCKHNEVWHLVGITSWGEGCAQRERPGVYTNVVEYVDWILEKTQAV
Sequence of purified human Factor XIa (P03951 whole entry partner, looked up): as the sequence (P03951 whole entry, looked up) above

| SMILES | Ki [1] | Ki [2] | Ki ([1]; TFA salt) | Ki ([2]; TFA salt) |
| --- | --- | --- | --- | --- |
| COC(=O)Nc1ccc2c(c1)NC(=O)[C@H](C)CCC[C@H](N1CCC(c3ccccc3OC)=CC1=O)c1cc-2ccn1 [Example 116, Methyl N-[(10R,14S)-14-[4-(2-methoxyphenyl)-6-oxo-1,2,3,6-tetrahydropyridin-1-yl]-10-methyl-9-oxo-8,16-diazatricyclo[13.3.1.0^2,7]nonadeca-1(18),2,4,6,15(19),16-hexaen-5-yl]carbamate] | 267 nM | 739 nM | – | – |
| CC1CCC[C@H](N2CCC(c3c(F)ccc(Cl)c3F)=CC2=O)c2cc(ccn2)-c2ccc(C(=O)O)cc2NC1=O (stereo partly drawn) [Example 105, (14S)-14-[4-(3-Chloro-2,6-difluorophenyl)-6-oxo-1,2,3,6-tetrahydropyridin-1-yl]-10-methyl-9-oxo-8,16-diazatricyclo[13.3.1.0^2,7]nonadeca-1(18),2,4,6,15(19),16-hexaene-5-carboxylic acid, TFA salt] | > 342 nM | 3920 nM | – | – |
| Cc1[nH]c2cc3c(cc2c1C(=O)O)-c1ccnc(c1)[C@@H](N1CCC(c2c(F)ccc(Cl)c2F)=CC1=O)CCC[C@@H](C)C(=O)N3 [Example 83, (13R,17S)-17-[4-(3-Chloro-2,6-difluorophenyl)-6-oxo-1,2,3,6-tetrahydropyridin-1-yl]-6,13-dimethyl-12-oxo-7,11,19-triazatetracyclo[16.3.1.0^2,10.0^4,8]docosa-1(22),2,4(8),5,9,18,20-heptaene-5-carboxylic acid, TFA salt] | 0.06 nM | 7 nM | – | – |
| COC(=O)c1ccc2c(c1)-c1ccnc(c1)[C@@H](N1CCC(c3c(C(F)(F)F)ccc(Cl)c3F)=CC1=O)CCC[C@@H](C)C(=O)N2 [Example 186, Methyl (10R,14S)-14-{4-[3-chloro-2-fluoro-6-(trifluoromethyl)phenyl]-6-oxo-1,2,3,6-tetrahydropyridin-1-yl}-10-methyl-9-oxo-8,16-diazatricyclo[13.3.1.0^2,7]nonadeca-1(19),2(7),3,5,15,17-hexaene-4-carboxylate] | 57.9 nM | 60.5 nM | – | – |
| COC(=O)c1ccc2c(c1)-c1cccc(c1)[C@@H](N1CCC(c3c(C#N)ccc(C#N)c3F)=CC1=O)CCC[C@@H](C)C(=O)N2 [Example 168, Methyl (10R,14S)-14-[4-(3,6-dicyano-2-fluorophenyl)-6-oxo-1,2,3,6-tetrahydropyridin-1-yl]-10-methyl-9-oxo-8-azatricyclo[13.3.1.0^2,7]nonadeca-1(18),2,4,6,15(19),16-hexaene-4-carboxylate] | > 417 nM | 1920 nM | – | – |
| C[C@@H]1CCC[C@H](N2CCC(c3c(Br)ccc(Cl)c3F)=CC2=O)c2cc(ccn2)-c2c(ccc(F)c2F)NC1=O [Example 204, (10R,14S)-14-[4-(6-bromo-3-chloro-2-fluorophenyl)-6-oxo-1,2,3,6-tetrahydropyridin-1-yl]-3,4-difluoro-10-methyl-8,16-diazatricyclo[13.3.1.0^2,7]nonadeca-1(19),2(7),3,5,15,17-hexaen-9-one, TFA salt] | 4.46 nM | 16 nM | – | – |
| COC(=O)Nc1ccc2c(c1)NC(=O)[C@H](C)CCC[C@H](N1CCC(C3CCNCC3)=CC1=O)c1cc-2ccn1 [Example 155, Methyl N-[(10R,14S)-10-methyl-9-oxo-14-[6-oxo-4-(piperidin-4-yl)-1,2,3,6-tetrahydropyridin-1-yl]-8,16-diazatricyclo[13.3.1.0^2,7]nonadeca-1(19),2,4,6,15,17-hexaen-5-yl]carbamate, 2 TFA salt] | 4.88 nM | 199 nM | – | – |
| COC(=O)Nc1ccc2c(c1)NC(=O)[C@H](C)CCC[C@H](N1CCC(C3CCCC(C)C3)=CC1=O)c1cc-2ccn1 (single isomer, unassigned) [Example 226, TFA salt] | – | – | 24.6 nM | 165 nM |
| C[C@@H]1CCC[C@H](N2CCC(c3c(C#N)ccc(Cl)c3F)=CC2=O)c2cc(ccn2)-c2cc(F)c(F)cc2NC1=O [Example 211, 4-chloro-2-{1-[(10R,14S)-4,5-difluoro-10-methyl-9-oxo-8,16-diazatricyclo[13.3.1.0^2,7]nonadeca-1(19),2(7),3,5,15,17-hexaen-14-yl]-6-oxo-1,2,3,6-tetrahydropyridin-4-yl}-3-fluorobenzonitrile, TFA salt] | 3.26 nM | 6.46 nM | – | – |
| C[C@@H]1CCC[C@H](n2ccc(-c3cccc(Cl)c3F)cc2=O)c2cc(ccn2)-c2c(F)cc(F)cc2NC1=O [Example 212, (10R,14S)-14-[4-(3-chloro-2-fluorophenyl)-2-oxo-1,2-dihydropyridin-1-yl]-3,5-difluoro-10-methyl-8,16-diazatricyclo[13.3.1.0^2,7]nonadeca-1(19),2(7),3,5,15,17-hexaen-9-one, TFA salt] | 111 nM | 286 nM | – | – |
| COC(=O)c1ccc2c(c1)-c1cccc(c1)[C@@H](N1CCC(c3cccc(Cl)c3F)=CC1=O)CCC[C@@H](C)C(=O)N2 [Example 169, Methyl (10R,14S)-14-[4-(3-chloro-2-fluorophenyl)-6-oxo-1,2,3,6-tetrahydropyridin-1-yl]-10-methyl-9-oxo-8-azatricyclo[13.3.1.0^2,7]nonadeca-1(18),2,4,6,15(19),16-hexaene-4-carboxylate] | > 417 nM | 768 nM | – | – |
| COC(=O)Nc1ccc2c(c1)C(=O)NCC/C=C/C[C@H](N1CCC(c3c(F)ccc(Cl)c3F)=CC1=O)c1cc-2ccn1 [Example 216, Methyl N-[(12E,15S)-15-[4-(3-chloro-2,6-difluorophenyl)-6-oxo-1,2,3,6-tetrahydropyridin-1-yl]-8-oxo-9,17-diazatricyclo[14.3.1.0^2,7]icosa-1(20),2(7),3,5,12,16,18-heptaen-5-yl]carbamate, TFA salt] | 264 nM | 212 nM | – | – |
| C[C@@H]1CCC[C@H](N2CCC(c3c(C#N)ccc(Cl)c3F)=CC2=O)c2cc(ccn2)-c2c(F)cc(F)cc2NC1=O [Example 207, 4-chloro-2-{1-[(10R,14S)-3,5-difluoro-10-methyl-9-oxo-8,16-diazatricyclo[13.3.1.0^2,7]nonadeca-1(19),2(7),3,5,15,17-hexaen-14-yl]-6-oxo-1,2,3,6-tetrahydropyridin-4-yl}-3-fluorobenzonitrile, TFA salt] | 2.75 nM | 5.8 nM | – | – |
| COC(=O)Nc1ccc2c(c1)NC(=O)[C@H](C)CCC[C@H](N1CCC(c3ccnc(N)c3)=CC1=O)c1cc-2ccn1 [Example 154, Methyl N-[(10R,14S)-14-[4-(2-aminopyridin-4-yl)-6-oxo-1,2,3,6-tetrahydropyridin-1-yl]-10-methyl-9-oxo-8,16-diazatricyclo[13.3.1.0^2,7]nonadeca-1(19),2,4,6,15,17-hexaen-5-yl]carbamate, 2 TFA salt] | 23.6 nM | 118 nM | – | – |
| COC(=O)c1ccc2c(c1)-c1cccc(c1)[C@H](N1CCC(c3c(Br)ccc(Cl)c3F)=CC1=O)CCC[C@@H](C)C(=O)N2 [Example 175, Methyl (10R,14R)-14-[4-(6-bromo-3-chloro-2-fluorophenyl)-6-oxo-1,2,3,6-tetrahydropyridin-1-yl]-10-methyl-9-oxo-8-azatricyclo[13.3.1.0^2,7]nonadeca-1(19),2,4,6,15,17-hexaene-4-carboxylate] | > 625 nM | 3810 nM | – | – |
| COC(=O)Nc1ccc2c(c1)NC(=O)[C@H](C)CCC[C@H](N1CCC(c3c(F)ccc(C)c3F)=CC1=O)c1cc-2ccn1 [Example 111, Methyl N-[(10R,14S)-14-[4-(2,6-difluoro-3-methylphenyl)-6-oxo-1,2,3,6-tetrahydropyridin-1-yl]-10-methyl-9-oxo-8,16-diazatricyclo[13.3.1.0^2,7]nonadeca-1(18),2,4,6,15(19),16-hexaen-5-yl]carbamate] | 1.42 nM | 3.25 nM | – | – |
| C[C@@H]1CCC[C@H](N2CCC(c3c(F)ccc(Cl)c3F)=CC2=O)c2cc(ccn2)-c2ccc(NC3O[C@H](CO)[C@@H](O)[C@H](O)[C@H]3O)cc2NC1=O (stereo partly drawn) [Example 126, (10R,14S)-14-[4-(3-chloro-2,6-difluorophenyl)-6-oxo-1,2,3,6-tetrahydropyridin-1-yl]-10-methyl-5-{[(3R,4S,5S,6R)-3,4,5-trihydroxy-6-(hydroxymethyl)oxan-2-yl]amino}-8,16-diazatricyclo[13.3.1.0^2,7]nonadeca-1(19),2,4,6,15,17-hexaen-9-one] | 16.1 nM | 37.6 nM | – | – |
| COC(=O)Nc1ccc2c(c1)NC(=O)[C@H](C)CCC[C@H](N1CCC(c3c(Br)ccc(Cl)c3F)=CC1=O)c1cccc-2c1 [Example 161, Methyl N-[(10R,14S)-14-[4-(6-bromo-3-chloro-2-fluorophenyl)-6-oxo-1,2,3,6-tetrahydropyridin-1-yl]-10-methyl-9-oxo-8-azatricyclo[13.3.1.0^2,7]nonadeca-1(19),2,4,6,15,17-hexaen-5-yl]carbamate] | 0.59 nM | 21.6 nM | – | – |
| C[C@@H]1CCC[C@H](N2CCC(c3c(F)ccc(Cl)c3F)=CC2=O)c2cc(ccn2)-c2ccc(NC3O[C@H](C(=O)O)[C@@H](O)[C@H](O)[C@H]3O)cc2NC1=O (stereo partly drawn) [Example 128, (2S,3S,4S,5R)-6-{[(10R,14S)-14-[4-(3-chloro-2,6-difluorophenyl)-6-oxo-1,2,3,6-tetrahydropyridin-1-yl]-10-methyl-9-oxo-8,16-diazatricyclo[13.3.1.0^2,7]nonadeca-1(19),2,4,6,15,17-hexaen-5-yl]amino}-3,4,5-trihydroxyoxane-2-carboxylic acid] | 10.3 nM | 25.5 nM | – | – |
| C[C@@H]1CCC[C@H](N2CCC(c3c(C#N)ccc(Cl)c3F)=CC2=O)c2cc(ccn2)-c2cc(F)ccc2NC1=O [Example 150, 4-chloro-3-fluoro-2-{1-[(10R,14S)-4-fluoro-10-methyl-9-oxo-8,16-diazatricyclo[13.3.1.0^2,7]nonadeca-1(19),2(7),3,5,15,17-hexaen-14-yl]-6-oxo-1,2,3,6-tetrahydropyridin-4-yl}benzonitrile] | 0.99 nM | 2.27 nM | – | – |
| C[C@@H]1CCC[C@H](N2CCC(c3cc(Cl)ccc3-n3ccnn3)=CC2=O)c2cc(ccn2)-c2cc(F)ccc2NC1=O [Example 188, (10R,14S)-14-{4-[5-chloro-2-(1H-1,2,3-triazol-1-yl)phenyl]-6-oxo-1,2,3,6-tetrahydropyridin-1-yl}-4-fluoro-10-methyl-8,16-diazatricyclo[13.3.1.0^2,7]nonadeca-1(19),2(7),3,5,15,17-hexaen-9-one] | 1.6 nM | 23.2 nM | – | – |
